Like-named read-outs stand apart in the source and are kept apart here.
Assays:
[1] = Solubility in aqueous medium buffered to physiological pH (phosphate 0.33M, pH 7.4); assay type: physicochemical; details: phosphate 0.33M, pH = 7.4
Protocol: The solubilities of the compounds were also measured in a medium buffered to physiological pH (cf. Table 3).

[2] = Pharmacokinetic profile / in vivo conversion after oral administration to SCID mice (plasma, LC-MS/MS); design: species or system female SCID mice; details: female, mouse, po, lipid formulation (PEG 300/ethanol/Phosal 50PG 30/10/60)
Protocol: The pharmacokinetic profile of the phosphate compounds of formula (I) is evaluated in a lipid formulation and in aqueous solution in female SCID mice. This is compared to the pharmacokinetic profile of compounds of formula (I′) in a lipid formulation. More specifically, 4-[{[3-(6-{[(3S)-3-(morpholin-4-ylmethyl)-3,4-dihydroisoquinolin-2(1H)-yl]-carbonyl}-1,3-benzodioxol-5-yl)-5,6,7,8-tetrahydroindolizin-1-yl]carbonyl}(phenyl)-amino]phenyl disodium phosphate (also referred to as the compound of Example 1) was tested and compared to N-(4-hydroxyphenyl)-3-{6-[((3S)-3-(4-morpholinylmethyl)-3,4-dihydro-2(1H)-isoquinolinyl)carbonyl]-1,3-benzodioxol-5-yl}-N-phenyl-5,6,7,8-tetrahydro-1-indolizine carboxamide (also referred to as the drug from Example 1).
The compound of Example 1 is prepared in a mixture of anhydrous ethanol/polyethylene glycol 300/water (10/40/50, v/v/v) intended for administration by the p.o. route. The study is carried out in 2 groups of SCID mice to which the compound of Example 1 is administered under the following conditions: • Group 1: 3 mg/kg p.o. (gavage, 10 mL/kg), • Group 2: 25 mg/kg p.o. (gavage, 10 mL/kg).
Blood samples are taken at the following points in time (3 samples per animal and 3 animals for each point in time): 0.25 hr, 0.5 hr, 1 hr, 2 hrs, 6 hrs and 24 hrs after oral administration.
The compound of Example 1 is also administered by the oral route in an aqueous medium to SCID mice, under the following conditions: • Group 1: 30 mg/kg p.o. dissolved in 1 mM sodium carbonate solution (gavage, 10 mL/kg), • Group 2: 100 mg/kg p.o. in water (gavage, 10 mL/kg).
Blood samples are taken at the following points in time (3 animals for each point in time and 1 sample per animal): 0.25 hr, 0.5 hr, 1 hr, 2 hrs, 4 hrs, 6 hrs and 24 hrs after oral administration.
For all formulations of the compound of Example 1, the blood thereby collected is centrifuged and the plasma is transferred to tubes containing 1M hydrochloric acid. The plasma concentrations of the phosphate compound (prodrug) and its hydroxylated homologue (drug) are determined simultaneously using a method of liquid chromatography coupled with mass spectrometric detection (TFC-LC-MS/MS). The limit of detection for both entities is 0.5 ng/mL.
The drug from Example 1 is prepared in a mixture of anhydrous ethanol/polyethylene glycol 300/water (10/40/50, v/v/v) intended for administration by the p.o. route. The study is carried out in several groups of SCID mice to which the drug from Example 1 is administered under the following conditions: • Group 1: 3 mg/kg p.o. (gavage, 10 mL/kg), • Group 2: 30 mg/kg p.o. (gavage, 10 mL/kg), • Group 3: 25 mg/kg p.o. (gavage, 10 mL/kg), • Group 4: 100 mg/kg p.o. (gavage, 10 mL/kg).
Blood samples are taken at the following points in time (3 animals for each point in time and 3 samples per animal for Groups 1-2 and 1 sample per animal for Groups 3 and 4): • p.o.: before administration and then 0.25 hr, 0.5 hr, 0.75 hr, 1 hr, 2 hrs, 4 hrs, 6 hrs, 8 hrs, 16 hrs and 24 hrs after oral administration at 3 and 30 mg/kg, • p.o.: 0.5 hr, 2 hrs, 6 hrs, 16 hrs and 24 hrs after oral administration at 25 mg/kg and 0.5 hr, 1 hr, 2 hrs, 6 hrs, 16 hrs, 30 hrs and 48 hrs after oral administration at 100 mg/kg.
The plasma from the blood samples collected after administration of the lipid formulations of the drug from the compound of Example 1 are analysed by liquid chromatography coupled with mass spectrometric detection. The limit of quantification of the drug from the compound of Example 1 is less than or equal to 0.5 ng/mL.
Non-compartmental pharmacokinetic analysis is carried out on the mean values of the plasma concentrations of the compounds tested. […]

[3] = In vitro test on human Caco-2 cells, cellular transport A to B; assay type: in vitro ADME; details: human, Caco-2, drug incubated and measured, A to B, 1 or 3 μM, read-out: Papp, the drug after incubation of the drug
Protocol: (§1) The cellular transport from A to B (Apical to Basolateral) of the phosphate compounds of formula (I) and the compounds of formula (I′) (corresponding drugs) is studied in human Caco-2 cells. Each compound is deposited apically at 1 or 3 μM (in duplicate) and then incubated for 120 minutes.
(§2) Several samples are taken during the experiment; • apically: immediately after deposition (t=0) and at 120 minutes • basolaterally: at the end of the experiment (120 minutes)
(§3) The concentrations of the phosphate compound (prodrug) and/or of its hydroxylated homologue (drug) are determined by liquid chromatography coupled with mass spectrometric detection (LC-MS/MS). The limit of quantification for both entities is 2 ng/mL.
(§4) The apparent permeability (Papp) and the predicted absorbed fraction (Fabs) in humans are calculated for the prodrug, for the drug after incubation of the prodrug and for the drug after incubation of the drug (Hubatsch et al, Nat Protoc. 2007; 2(9), 2111-2119).
(§5) The experiment yield, which corresponds to the ratio (in percent) of the total amount of compound found at the end of the experiment versus that incubated, is also calculated.

human Caco-2 cells = experiment: as above; assay type: in vitro ADME; details: drug incubated and measured, 120 minutes; for Fabs (predicted absorbed fraction in humans), the drug after incubation of the drug: A to B, 1 or 3 μM
Protocol: as §1, §2, §3, §4, §5

[4] = test system: cleaved (activated) form of caspase 3; experiment: Quantification of the cleaved form of caspase 3 in vivo (MSD ELISA, RS4;11 xenograft tumour lysates); design: species or system mice (SCID strain); details: Table 2, 25 mg/kg oral, sampling time 2 hours, treated versus control mice
Protocol: The ability of the compounds of formula (I′) to activate caspase 3 is evaluated in a xenograft model of RS4;11 leukaemia cells.
1×10^7 RS4;11 cells are grafted sub-cutaneously into immunosuppressed mice (SCID strain). 25 to 30 days after the graft, the animals are treated orally with the various compounds. After treatment, the tumour masses are recovered and lysed, and the cleaved (activated) form of caspase 3 is quantified in the tumour lysates.
The quantification is carried out using the “Meso Scale Discovery (MSD) ELISA platform” test, which specifically assays the cleaved form of caspase 3. It is expressed in the form of an activation factor corresponding to the ratio between the quantity of cleaved caspase 3 in the treated mice divided by the quantity of cleaved caspase 3 in the control mice.
The ability of the compounds of formula (I) to activate caspase 3 is evaluated in a xenograft model of RS4;11 leukaemia cells in accordance with the protocol given in Example A2.

SMILES	Solubility at 10 μM [1]	Solubility at 20 μM [1]	Solubility at 50 μM [1]	Solubility at 100 μM [1]	Papp A→B at 120 min [3] [×10⁻⁶ cm/s]	Yield (experiment yield), the drug after incubation of the drug (human Caco-2 cells)	Fabs (predicted absorbed fraction in humans), the drug after incubation of the drug (human Caco-2 cells)	also measured
Cc1c(N(C(=O)c2cc(-c3cc(F)ccc3C(=O)N3Cc4ccccc4C[C@H]3CN3CCOCC3)n(C)c2C)c2ccc(O)cc2)cc(C#N)n1C [Drug from Example 25, N-(5-Cyano-1,2-dimethyl-1H-pyrrol-3-yl)-5-(5-fluoro-2-{[(3S)-3-(morpholin-4-ylmethyl)-3,4-dihydroisoquinolin-2(1H)-yl]carbonyl}phenyl)-N-(4-hydroxyphenyl)-1,2-dimethyl-1H-pyrrole-3-carboxamide]	Soluble	Soluble	Insoluble	Insoluble	0.49	Yield (%) = 100	Fabs (%) = 40	AUC(0-t) ([2]; Drug from Example 25 administered 3 mg/kg p.o., read-out: AUCt, compound measured: Drug from Example 25): 37 ng·h/mL; Cmax ([2]; Drug from Example 25 administered 3 mg/kg p.o., read-out: Cmax, compound measured: Drug from Example 25): 33 ng/mL; Tmax ([2]; Drug from Example 25 administered 3 mg/kg p.o., read-out: Tmax, compound measured: Drug from Example 25): 1 h; AUC(0-t) ([2]; Drug from Example 25 administered 25 mg/kg p.o., read-out: AUCt, compound measured: Drug from Example 25): 5700 ng·h/mL; Cmax ([2]; Drug from Example 25 administered 25 mg/kg p.o., read-out: Cmax, compound measured: Drug from Example 25): 3000 ng/mL; Tmax ([2]; Drug from Example 25 administered 25 mg/kg p.o., read-out: Tmax, compound measured: Drug from Example 25): 1 h
Cc1c(C(=O)N(c2ccc(OP(=O)([O-])[O-])cc2)c2cnn(C)c2)cc(-c2cc(Cl)ccc2C(=O)N2Cc3ccccc3C[C@H]2CN2CCOCC2)n1C.[Na+].[Na+] [Example 24, 4-[{[5-(5-Chloro-2-{[(3S)-3-(morpholin-4-ylmethyl)-3,4-dihydroisoquinolin-2(1H)-yl]carbonyl}phenyl)-1,2-dimethyl-1H-pyrrol-3-yl]carbonyl}(1-methyl-1H-pyrazol-4-yl)amino]phenyl disodium phosphate]	–	–	–	–	–	–	–	Activation factor +/− S.E.M. [4]: 60.5 +/− 4.5

Continued, in another order:

Solubility at 10 μM [1]	Solubility at 20 μM [1]	Solubility at 50 μM [1]	Solubility at 100 μM [1]	Papp A→B at 120 min [3] [×10⁻⁶ cm/s]	Yield (experiment yield), the drug after incubation of the drug (human Caco-2 cells)	Fabs (predicted absorbed fraction in humans), the drug after incubation of the drug (human Caco-2 cells)	SMILES	also measured
–	–	–	–	0.7	Yield (%) = 34	Fabs (%) = 68	C[C@@H]1Cc2ccccc2CN1C(=O)c1cc2c(cc1-c1cc(C(=O)N(c3ccncc3)c3ccc(O)cc3)c3ccccn13)OCO2 [Drug from Example 5, N-(4-Hydroxyphenyl)-3-(6-{[(3R)-3-methyl-3,4-dihydroisoquinolin-2(1H)-yl]-carbonyl}-1,3-benzodioxol-5-yl)-N-(pyridin-4-yl)indolizine-1-carboxamide]	–
Soluble	Insoluble	Insoluble	Insoluble	0.29	Yield (%) = 91	Fabs (%) = 25	Cc1c(N(C(=O)c2cc(-c3cc(Cl)ccc3C(=O)N3Cc4ccccc4C[C@H]3CN3CCOCC3)n(C)c2C)c2ccc(O)cc2)cc(C#N)n1C [Drug from Example 20, 5-(5-Chloro-2-{[(3S)-3-(morpholin-4-ylmethyl)-3,4-dihydroisoquinolin-2(1H)-yl]carbonyl}phenyl)-N-(5-cyano-1,2-dimethyl-1H-pyrrol-3-yl)-N-(4-hydroxyphenyl)-1,2-dimethyl-1H-pyrrole-3-carboxamide]	AUC(0-t) ([2]; Drug from Example 20 administered 3 mg/kg p.o., read-out: AUCt, compound measured: Drug from Example 20): 55 ng·h/mL; Cmax ([2]; Drug from Example 20 administered 3 mg/kg p.o., read-out: Cmax, compound measured: Drug from Example 20): 39 ng/mL; Tmax ([2]; Drug from Example 20 administered 3 mg/kg p.o., read-out: Tmax, compound measured: Drug from Example 20): 1 h; AUC(0-t) ([2]; Drug from Example 20 administered 25 mg/kg p.o., read-out: AUCt, compound measured: Drug from Example 20): 10200 ng·h/mL; Cmax ([2]; Drug from Example 20 administered 25 mg/kg p.o., read-out: Cmax, compound measured: Drug from Example 20): 5520 ng/mL; Tmax ([2]; Drug from Example 20 administered 25 mg/kg p.o., read-out: Tmax, compound measured: Drug from Example 20): 2 h
–	–	–	–	0.21	Yield (%) = 20	Fabs (%) = 46	C[C@@H]1Cc2ccccc2CN1C(=O)c1cc2c(cc1-c1cc(C(=O)N(c3ccc(O)cc3)c3cnc4c(ccn4C)c3)c3ccccn13)OCO2 [Drug from Example 4, N-(4-Hydroxyphenyl)-3-(6-{[(3R)-3-methyl-3,4-dihydroisoquinolin-2(1H)-yl]carbonyl}-1,3-benzodioxol-5-yl)-N-(1-methyl-1H-pyrrolo[2,3-b]pyridin-5-yl)-indolizine-1-carboxamide]	–

— US9115159B2, “Phosphate compounds, a process for their preparation and pharmaceutical compositions containing them” (LES LABORATOIRES SERVIER, priority 2013, dated 2015)
